Measured values taken from patent US20200316087A1, “NOVEL COMBINATION THERAPY FOR ANXIETY DISORDERS, EPILEPSY, AND PAIN” (priority 2017, published 2020).

Legend:
[1] = tested on: motor performance on an inverted screen; assay: Rat inverted screen test (motor impairment); settings: rats
Description: The motor effects of Diazepam and KRM-II-81 were studied on the inverted screen. The inverted screen test is used to measure whether or not a test compound induces muscle relaxation. When a test subject is placed on a wire screen which is then inverted, the reaction is to climb to the opposite side so they are no longer hanging upside down.
Male, Sprague Dawley rats (Harlan Sprague Dawley, Indianapolis, Ind.) were used and weighed 90-110 g when evaluated in experiments. […] Rats were placed onto the top of a wire screen, which was then inverted so that the rats were hanging upside down.
Male Sprague-Dawley rats (n=5) were dosed i.p. (vehicle=1% carboxymethyl cellulose) with diazepam (3, 10, or 30 mg/kg), KRM-II-81 (10, 30, or 60 mg/kg) or HZ-166 (30 mg/kg) 30 minutes prior to testing. Rats were placed onto the top of a wire screen, which was then inverted so that the rats were hanging upside down. […] Results were analyzed using ANOVA (Dunnett's test: *P<0.05).
(§1) For the in vivo assays, minimal effective doses (MED) were calculated in mg/kg. MED was defined as the lowest dose administered that produced statistically significant protection compared to vehicle control in the anticonvulsant assays. The MED, or minimal toxic dose (MTD) for motor impairment, was the minimal dose required to produce statistically-significant impairment in motor performance. Doses tested are shown in the figures and tables and are generally dosed in ½ log increments. The protective index (PT) was calculated at the MTD/MED.

[2] = tested on: CFA-induced mechanical hyperalgesia; assay: Complete Freund's adjuvant inflammatory pain, von Frey filament test; format: in vivo, rats
Protocol: Complete Freund's adjuvant (CFA) contains Mycobacterium butyricum, inducing inflammation and an increase in paw thickness. 0.1 mL of CFA was injected in the right hind paw of Sprague Dawley male rats under isoflurane anaesthesia. Mechanical hyperalgesia may be measured 2-3 days after CFA treatment. Rats (n=6) are placed in elevated boxes with a mesh floor. Von Frey filaments (expressed in g) are applied perpendicularly to the hindpaws, starting with the lowest filament (1.4 g) then increased until hindpaw withdrawal is observed. After each measurement, rats receive the next dose of drug (every 20 min) until the maximum threshold (26 g) is observed. For the antagonist study, rats are pretreated with the benzodiazepine site antagonist (10 min) and then receive the next dose of drug (every 20 min) until the pre-CFA threshold was observed.
3PBC.HCl was dissolved in a mixture containing 10% ethanol, 50% propylene glycol, and 40% sterile water. BCCt was dissolved in propylene glycol and then heated in a water bath up to 70° C. Midazolam (Akorn, Inc.) was dissolved in 0.9% saline. Doses were expressed as the weight of the drug in milligrams per kilogram of body weight and drugs were administered intraperitoneally.
Starting 2 days after CFA treatment, mechanical hyperalgesia was measured on days 0, 4, and 8. On days 1-3 and 5-7 rats were pretreated with either 3PBC.HCl (5.6 mg/kg), β-carboline-3-carboxylate-t-butyl ester (BCCt) (3.2 mg/kg) or saline twice a day (a.m. injections (9:00-10:30) and p.m. injections (5:00-6:30)) in their home cages. Rats were treated with midazolam (5.6 mg/kg) immediately after pretreatment of 3PBC.HCl, BCCt, or saline. On days 0 and 4, rats only received p.m. injections due to the mechanical hyperalgesia test done in the a.m.
The anti-hyperalgesic effects of midazolam were quantified for each animal as percent maximal possible effect (MPE) for each drug dose by using the following formula: percent MPE=[(post-drug value for a behavioral response (g)−pre-drug value for a behavioral response)/(pre-CFA value-pre-drug value for a behavioral response)×100.

[3] = tested on: electroshock-induced seizures; assay: Mouse electroshock-induced seizure model; format: in vivo; settings: mice
Protocol: This assay detects effects of compounds that produce generalized seizures and those that dampen seizure spread. Male, CD1 mice (Taconic Farms) were studied at weights of 21-32 g. Mice=10/dose) were used with Wahlquist Model H stimulator with 0.2 sec stimulation with corneal electrodes. […] Mice were euthanized immediately following the test. Tonic extension was used as the primary endpoint.
as §1

[4] = tested on: PTZ seizure threshold; assay: Pentylenetetrazole (PTZ, i.v.)-induced seizure threshold; format: in vivo, rats
Protocol: Male […] Sprague-Dawley rats (Indianapolis, Ind.) were randomly assigned to treatment groups and dosed with vehicle (vehicle=1% carboxymethyl cellulose) with diazepam (0.1, 0.3, or 1 mg/kg) or test compound (3, 10, 30, or 60 mg/kg) 30 minutes prior to testing. Rats were placed in a restrainer and a winged infusion needle was inserted into the lateral tail vein. Intravenous infusion with 10 mg/ml PTZ at a rate of 0.5 ml/min was initiated until a clonic convulsion occurred, and the time to clonic convulsion was recorded in sec or a maximum of 4 min was recorded. Following infusion, rats are euthanized. The dose of PTZ required to elicit a clonic convulsion was calculated using the infusion rate, concentration of PTZ, time to clonic convulsion, and animal weight.

[5] = tested on: seizures in amygdala kindled rats; assay: Basolateral amygdala kindling; format: in vivo
Protocol: Seizure kindling models evaluate effects of drugs on the sensitization of the nervous system to seizure induction. In this test, drugs were evaluated for their ability to impact seizure parameters in rats that were fully kindled by daily electrical stimulation of their amygdala. Valproic acid was used as a positive control. Experiments were conducted using the general procedures of Zwart et al. (J. Pharmacol. Exp. Ther., 2014, 351:124-133). A bipolar electrode for electrical stimulation and EEG recording was stereotaxically implanted into one hemisphere of the basolateral amygdala (AP −2.2, ML −4.8, DV −8.5 mm, relative to bregma) of male Wistar rats. After post-operative recovery, electrical kindling begins, where a subthreshold constant current (400 μA, 1 ms, monophasic square-wave pulses, 60 Hz for 1 sec) is given once a day Monday-Friday for about 4-6 weeks until a rat is fully kindled. A fully kindled rat has experienced 10 consecutive stage 5 seizures or 10 of its last 12 were stage 5 according to the Racine Scale.
Twelve fully kindled rats were assigned to this study, and eight rats were selected and randomized to initial compound treatment groups from baseline after discharge threshold (ADT), seizure severity score, and after discharge duration (ADD). […] On test day, rats were dosed 30 min prior to beginning stimulation. After the pre-treatment, rats were stimulated using an ascending staircase sequence beginning at 10 μA and increasing in log unit steps of 10, 16, 25, 40, 65, 100, 160, 250, and 400 μA. Animals were stimulated until they were assigned a Seizure Severity Score for a visually observably seizure or they reached the 400 μA threshold limit. ADD was determined following testing. ADT was the current that induced a seizure; measurements were scale-adjusted to capture the stimulation scale change required to observe a seizure from the previous baseline to the ADT scored on test day. […] The average scale adjusted ADT was approximately 0.63 μA in vehicle treated rats.
Racine score of behavioral response to stimulation: 0=no behavioral response; 1=immobility, staring and/or facial clonus; 2=head nodding, jaw clonus, and/or tongue protrusion; 3=unilateral forelimb clonus; 4=bilateral forelimb clonus and/or rearing; 5=bilateral forelimb clonus with rearing and loss of balance.
After-Discharge Duration (ADD) is the duration of the first after-discharge.
ADT, ADD, and severity scores were analyzed by ANOVA. Seizure severity data was also analyzed by the nonparametric Skillings-Mack test, a generalization of the Friedman test for one-way repeated measures designs. Posthoc tests when reported were either by Dunnett's method (seizure severity) or using Wilcoxon sign rank tests (ADT and ADD). Valproic acid, used as a positive control was not used in ANOVA calculations.

[6] = tested on: PTZ-induced clonus; assay: Pentylenetetrazole (PTZ, 35 mg/kg s.c.)-induced clonic convulsions; format: in vivo; settings: rats
Protocol: After the inverted screen test, the rats were dosed with pentylenetetrazole (PTZ)(35 mg/kg, s.c.) in a volume of 1 ml/kg and placed in an observation cage (40.6×20.3×15.2 cm) with a floor containing […] of wood chip bedding material. PTZ dose was determined to be ˜EC97 for producing clonic convulsions.

[7] = MED producing maximal protection (0% seizures)

For `CCCC(CCC)C(=O)O` [valproate, Valproic acid, reference compound], the “motor impairment on inverted screen” value ([1]; 300 mg/kg, positive control) was “full motor impairment”.

With `CCCOc1cc2c(cn1)[nH]c1ccccc12.Cl` [3-PBC.HCl] the “percent maximal possible effect of midazolam” value ([2]; midazolam 5.6 mg/kg after 7 days of repeated midazolam with 3PBC.HCl (5.6 mg/kg) pretreatment twice a day) was 52 % MMPE.

With `Cc1ncc2n1-c1ccc(Cl)cc1C(c1ccccc1F)=NC2` [midazolam] the “percent maximal possible effect (MPE) of midazolam” value ([2]; midazolam 5.6 mg/kg after 7 days of repeated midazolam with saline pretreatment) was 17 % MPE and the “percent maximal possible effect (MPE), attenuation of mechanical hyperalgesia” value ([2]; midazolam 5.6 mg/kg i.p., Day 0, prior to repeated treatment, CFA rats) was 100 % MPE.

In the case of `CC(C)(C)OC(=O)c1cc2c(cn1)[nH]c1ccccc12` [BCCt, β-carboline-3-carboxylate-t-butyl ester], the “percent maximal possible effect (MPE) of midazolam” value ([2]; midazolam 5.6 mg/kg after 7 days of repeated midazolam with BCCt (3.2 mg/kg) pretreatment twice a day) is reported as 92 % MPE.

`C#Cc1ccc2c(c1)C(c1ccccn1)=NCc1c(C(=O)OCC)ncn1-2` [HZ-166, ethyl 8-ethynyl-6-(pyridin-2-yl)-4H-benzo[f]imidazo[1,5-a][1,4]diazepine-3-carboxylate, reference compound] was tested, and the “Electroshock to Criteria” value [3, 7] was over 30 mg/kg, the “Electroshock (minimal effective dose, MED)” value ([3]; lowest dose with statistically significant protection vs vehicle) was 30 mg/kg and the “protection against electroshock-induced seizures” value [3] was “not efficacious up to 30 mg/kg”. The “PTZ Threshold to Criteria” value ([4]; MED for producing ≥2× PTZ seizure threshold at baseline) was over 60 mg/kg, the “PTZ Threshold Poteny (MED)” value ([4]; lowest dose with statistically significant effect, rats, PTZ i.v.) was over 60 mg/kg and the “effect on dose of PTZ required to induce convulsions” value ([4]; rats, PTZ i.v. infusion, pretreatment 30 min) was “not active and displayed little protection up to 60 mg/kg”. For the same compound, the “muscle relaxation on inverted screen (result in words)” value ([1]; i.p., 30 min prior, KRM-II-81 10-60 mg/kg, HZ-166 30 mg/kg) was “Neither HZ-166 nor KRM-II-81 induced significant muscle relaxation”, the “dose at which signs of muscle relaxation began to appear” value ([1]; i.p., inverted screen) was 30 mg/kg and the “After-Discharge Duration to Criteria” value ([5]; MED for producing after-discharge duration ≤30 sec) was over 60 mg/kg. For the same compound, the “After-Discharge Threshold to Criteria” value ([5]; MED for producing after-discharge threshold ≥3) was over 60 mg/kg, the “Seizure Severity to Criteria” value ([5]; MED for producing seizure severity score ≤2) was over 60 mg/kg and the “After-Discharge Duration Potency (MED)” value ([5]; amygdala kindled rats) was over 60 mg/kg. For the same compound, the “After-Discharge Threshold Potency (MED)” value ([5]; amygdala kindled rats) was over 60 mg/kg, the “Seizure Severity Poteny (MED)” value ([5]; amygdala kindled rats) was over 60 mg/kg and the “Seizure free scores (seizure severity=0)” value ([5]; amygdala kindled rats, groups of 8) was 0/8. The “PTZ Clonus to Criteria 1” value [6, 7] was over 30 mg/kg, the “PTZ Clonus Potency (MED)” value ([6]; lowest dose with statistically significant protection, PTZ 35 mg/kg s.c.) was over 30 mg/kg and the “protection against PTZ-induced clonus” value ([6]; PTZ 35 mg/kg s.c.) was “did not significantly separate from vehicle up to 30 mg/kg”.

With `CCOC(=O)c1ncn2c1CN(C)C(=O)c1cc(F)ccc1-2` [Flumazenil, flumazenil] the “effect on antinociceptive effects of KRM-II-81” value ([2]; flumazenil pre-treatment before cumulative doses of KRM-II-81, CFA rats) was “dose-dependently attenuated”.
